Assay results: ChEMBL document CHEMBL3885861, “Open TG-GATES”

Species: Rattus norvegicus
Test: Open TG-GATES - Regimen: Single
Format: toxicity, organism-based, Sprague-Dawley
Parameters: regimen Single, gender Male, age 6 weeks
Conditions: in vivo, po, 0 mg/kg, route gavage, dose level Control; for APTT / Bas / Eos / Fbg / Hb / Ht / Lym / MCH / MCHC / MCV / Mono / Neu / PT / Plat / RBC / Ret / WBC: tissue Blood; for KIDNEY_L / KIDNEY_R / KIDNEY_TOTAL: tissue Kidney; for LIVER: tissue Liver; for A/G / ALP / ALT / AST / BUN / CRE / Ca / Cl / DBIL / GLC / IP / K / LDH / Na / PL / RALB / TBIL / TC / TG / TP / gamma-GTP: tissue Plasma

## CC(=O)Nc1ccc2c(c1)Cc1ccccc1-2 [2-ACETYLAMINOFLUORENE]
9 h
  TERMINAL_BW: 217 g
  APTT: 17.7 s
  Bas: 0.8%
  Eos: 0.8%
  Fbg: 241.4 mg/dL
  Hb: 13.9 g/dL
  Ht: 40.5%
  Lym: 75.2%
  MCH: 21.8 pg
  MCHC: 34.3%
  MCV: 63.4 fL
  Mono: 2.8%
  Neu: 19.4%
  PT: 12 s
  Plat: 124 x10_4/uL
  RBC: 639.4 x10_4/ul
  Ret: 6.7%
  WBC: 86.2 x10_2/uL
  KIDNEY_L: 1 g
  KIDNEY_R: 1 g
  KIDNEY_TOTAL: 1.9 g
  LIVER: 9.2 g
  A/G: 1.5
  ALP: 861.2 IU/L
  ALT: 32.4 IU/L
  AST: 67.8 IU/L
  BUN: 11.2 mg/dL
  CRE: 0.4 mg/dL
  Ca: 10.6 mg/dL
  Cl: 104 meq/L
  DBIL: 0.06 mg/dL
  GLC: 210.4 mg/dL
  IP: 9 mg/dL
  K: 3.7 meq/L
  LDH: 239.6 IU/L
  Na: 141 meq/L
  PL: 134.8 mg/dL
  RALB: 3.5 g/dL
  TBIL: 0.1 mg/dL
  TC: 73.6 mg/dL
  TG: 49.2 mg/dL
  TP: 5.7 g/dL
  gamma-GTP: 1 IU/L
24 h
  TERMINAL_BW: 237.9 g
  APTT: 20.8 s
  Bas: 0.2%
  Eos: 0.8%
  Fbg: 217.2 mg/dL
  Hb: 13.8 g/dL
  Ht: 40.1%
  Lym: 82%
  MCH: 22.5 pg
  MCHC: 34.3%
  MCV: 65.4 fL
  Mono: 3%
  Neu: 13.2%
  PT: 11.9 s
  Plat: 121.3 x10_4/uL
  RBC: 612 x10_4/ul
  Ret: 6.8%
  WBC: 101.1 x10_2/uL
  KIDNEY_L: 1.1 g
  KIDNEY_R: 1.1 g
  KIDNEY_TOTAL: 2.1 g
  LIVER: 11.4 g
  A/G: 1.7
  ALP: 1055.8 IU/L
  ALT: 40 IU/L
  AST: 69.4 IU/L
  BUN: 14.8 mg/dL
  CRE: 0.4 mg/dL
  Ca: 10.8 mg/dL
  Cl: 103.8 meq/L
  DBIL: 0.09 mg/dL
  GLC: 214.6 mg/dL
  IP: 8.3 mg/dL
  K: 3.9 meq/L
  LDH: 192.8 IU/L
  Na: 140.4 meq/L
  PL: 132.2 mg/dL
  RALB: 3.4 g/dL
  TBIL: 0.2 mg/dL
  TC: 64.2 mg/dL
  TG: 95.8 mg/dL
  TP: 5.4 g/dL
  gamma-GTP: 1.2 IU/L
